The results in this text go back to US20210038668A1, “TRADITIONAL CHINESE MEDICINE COMPOSITION FOR PREVENTING AND/OR TREATING ISCHEMIC REPERFUSION INJURY” (TASLY PHARMACEUTICAL GROUP CO., LTD., priority 2018, published 2021).

Test [1] deals with JAM-1. The test can be described thus: Western blotting of JAM-1, endothelial cells after hypoxia/reoxygenation. Type of test: cell-based. Conditions: rat brain endothelial cells, hypoxia 4.5 h/reoxygenation 3 h; tPA 20 mcg/ml alone (model group); T541 400 mcg/ml + tPA 20 mcg/ml. The text has this:
(§1) Establishment of rat brain endothelial cell H/R model: rat brain endothelial cells were purchased from ATCC, and then subcultured to 5-6 generations in normal conditions for further experiment. […]
(In general: A western blot detects proteins with antibodies after separation by electrophoresis.)

The test system of test [2] is MDA. The test can be described thus: ELISA of MDA in brain tissue. The conditions noted are these: brain tissue 24 hours after administration; tPA 10 mg/kg alone or + T541 20 mg/kg or ingredients at Table 7 doses. In kind it is in vivo, C57BL/6 mice. The text has this: (§2) To compare the therapeutical effect on reperfusion injury caused by tPA thrombolysis between the traditional Chinese medicinal composition of the present invention and each ingredient (total saponins of Astragalus, the experiment was divided into the following group (tPA is combined with T541, individual ingredient thereof and compatibility of any two ingredients) specifically as follows: tPA+total saponins of Astragalus (tPA+HQ), tPA+ salvianolic acids (tPA+DS), tPA+Panax notoginseng saponins (tPA+SQ), tPA+ total saponins of Astragalus+salvianolic acids (tPA+HQ+DS), tPA+ total saponins of Astragalus+Panax notoginseng saponins (tPA+HQ+SQ), tPA+ salvianolic acids+Panax notoginseng saponins (tPA+DS+SQ) and tPA+T541. Normal saline served as an isovolumetric control. The usage number in each group is 6.
(§3) ELISA adsorption kit was used to measure the change on the content of MDA, 8-hydroxyl-2′-deoxyguanosine (8-OHdG), adenosine triphosphate (ATP), adenosine diphosphate (ADP) and adenosine monophosphate (AMP) in the penumbra field of brain tissue cortex of the mode, and the change on the activity of mitochondrial complexes I, II, IV and V. 6 samples were used to repeat the independent experiment for at least three times for each group of data.
(In general: In an ELISA, binding on a coated surface is turned into a signal by an enzyme label.)

For test [3], the system named is 8-OHdG. The test can be described thus: ELISA of 8-OHdG in brain tissue. In kind it is in vivo, C57BL/6 mice. The conditions noted are these: brain tissue 24 hours after administration; tPA 10 mg/kg alone or + T541 20 mg/kg or ingredients at Table 7 doses.
Description: as §2, §3

For test [4], the system named is mitochondrial complex II. Nature of the test: Mitochondrial complex II activity in brain tissue. Type of test: in vivo, C57BL/6 mice. The conditions noted are these: brain tissue 24 hours after administration; tPA 10 mg/kg alone or + T541 20 mg/kg or ingredients at Table 7 doses.
Description: as §2, §3

Test [5] relates to Bcl-2. Nature of the test: Western blotting of Bcl-2 in brain tissue. Type of test: in vivo, C57BL/6 mice. The conditions noted are these: brain tissue 24 h after administration, sham = 1.00; tPA 10 mg/kg alone or + T541 20 mg/kg or ingredients at Table 7 doses.
Description: as §2
(§4) After reperfused for 24 hours, mice were perfused by normal saline; Western blotting analysis was conducted to the penumbra field of infarcted right cerebral cortex. […] Excessive supernatant was taken out and quantified by a BCA protein quantification liquor (ThermoScientific, US) to measure absorbance value at 560 nm of ELIASA and to calculate the protein concentration according to a standard curve. […] The density of electrophoretic strips was analyzed by an image analysis software Quantityone. […]

Test [6] deals with Bax. The test can be described thus: Western blotting of Bax in brain tissue. Type of test: in vivo, C57BL/6 mice. Conditions: brain tissue 24 h after administration, sham = 1.00; tPA 10 mg/kg alone or + T541 20 mg/kg or ingredients at Table 7 doses.
Description: as §2, §4

The test system of test [7] is Bax. The test can be described thus: Western blotting of Bax, endothelial cells after hypoxia/reoxygenation. Type of test: cell-based. The conditions noted are these: rat brain endothelial cells, hypoxia 4.5 h/reoxygenation 3 h; tPA 20 mcg/ml alone (model group); T541 400 mcg/ml + tPA 20 mcg/ml.
Description: as §1

Regarding “tPA: tissue-type plasminogen activator (tPA) for thrombolysis”, in test [1], the JAM-1/β-actin stood at 0.64 ± 0.05. Also, the MDA in test [2] was determined as 30.08 ± 2.90. The 8-OHdG in test [3] was found to be 1.84 ± 0.11. For the same substance, in test [4], the “Complex II activity” value was found to be 0.025 ± 0.005. Moreover, the Bcl-2 in test [5] is given as 1.51 ± 0.14. In addition, in test [6], the Bax is listed as 5.52 ± 0.78 and the Bax/Bcl-2 worked out at 3.82 ± 0.57. In addition, in test [7], the Bax came out at 2.44 ± 0.51 and the Bax/Bcl-2 was 4.57 ± 0.75.
